Assay results as given in patent publication US20080255213A1, “THIAZOLIDINONE AMIDES, THIAZOLIDINE CARBOXYLIC ACID AMIDES, AND SERINE AMIDES, INCLUDING POLYAMINE CONJUGATES THEREOF, AS SELECTIVE ANTI-CANCER AGENTS” (University of Tennessee Research Foundation, priority 2007, published 2008).

Columns and labels:
[1] = tested on: WM-164 melanoma cell line; test: Sulforhodamine B (SRB) cytotoxicity assay, WM-164; format: cell-based; conditions: Homo sapiens, WM164, 48 h exposure, diastereomeric mixtures, value ± standard error, read-out: IC50 ± SEM WM-164 (converted)
Description: (§1) Cytotoxicity of these newly synthesized compounds was examined in two human melanoma cell lines (SK-MEL-188 and WM-164) and in a fibroblast cell line. Activity on fibroblast cells was used as a control to determine the selectivity of these compounds against melanoma. Standard sulforhodamine B (SRB) assay was used. Cells were exposed to a wide range of concentrations for 48 h in round-bottom 96-well plates. Cells were fixed with 10% trichloroacetic acid and washed five times with water. After cells were air-dried overnight and stained with SRB solution, total proteins were measured at 560 nm with a plate reader. IC50 (i.e., concentration which inhibited cell growth by 50% of DMSO-treated controls) values were obtained by nonlinear regression analysis with GraphPad Prism (GraphPad Software, San Diego, Calif.).
(§2) The ability of thiazolidine derivatives to inhibit the growth of two melanoma cancer cell lines and fibroblast cells is summarized in Table 1. […] At this early stage, all compounds were used as a diastereomeric mixture if they contain chiral centers in order to select the most promising compounds for further development.

[2] = tested on: melanoma cells; test: SRB cytotoxicity assay, statements not tied to one cell line; format: cell-based, human
Description: as §1, §2

[3] = tested on: fibroblast cell line; test: Sulforhodamine B (SRB) cytotoxicity assay, fibroblast control; format: cell-based; conditions: 48 h exposure, control for selectivity, value ± standard error, read-out: IC50 ± SEM Fibroblast (converted)
Description: as §1, §2

[4] = tested on: SK-MEL-188 melanoma cell line; test: Sulforhodamine B (SRB) cytotoxicity assay, SK-MEL-188; format: cell-based; conditions: Homo sapiens, 48 h exposure, diastereomeric mixtures, value ± standard error, read-out: IC50 ± SEM SK-MEL-188 (converted)
Description: as §1, §2

CNC(=O)c1cc(Oc2ccc(NC(=O)Nc3ccc(Cl)c(C(F)(F)F)c3)cc2)ccn1 [Sorafenib, reference compound]
IC50 [1]: 4.7 ± 0.3 µM | selectivity: ratio of IC50 values for fibroblast cells over melanoma cells ([2]; fibroblast IC50 / melanoma IC50): > 25 | potency against melanoma cells relative to compound 317 (times less potent) ([2]; versus compound 317): about 10 times | IC50 [3]: > 100 µM | IC50 [4]: 4.3 ± 0.2 µM
